Key:
E. coli = E. coli CO tolerance experiment (anaerobic growth with saturating CO); assay type: cell-based; settings: levels achievable at normal atmospheric pressure
Description: To test whether or not E. coli can grow anaerobically in the presence of saturating amounts of CO, cultures were set up in 120 ml serum bottles with 50 ml of Terrific Broth medium (plus reducing solution, NiCl2, Fe(II)NH4SO4, cyanocobalamin, IPTG, and chloramphenicol) as described above for anaerobic microbiology in small volumes. One half of these bottles were equilibrated with nitrogen gas for 30 min. and one half was equilibrated with CO gas for 30 min. An empty vector (pZA33) was used as a control, and cultures containing the pZA33 empty vector as well as both ACS90 and ACS91 were tested with both N2 and CO. All were inoculated and grown for 36 hrs with shaking (250 rpm) at 37° C. […] The bulk of the observed growth occurred overnight with a long lag.

[1] = 20° C. and 1 atm; cited from earlier work

Question: What does the source list for `[C-]#[O+]` [CO]?
Answer: sensitivity of laboratory strains of E. coli to CO (E. coli): insensitive; maximum water solubility [1]: 970 µM

Source: US11572564B2, “Microorganisms for producing 1,4-butanediol and methods related thereto” (priority 2011, dated 2023)
